Source: ChEMBL document CHEMBL5096210, “Discovery of Betulinic Acid Derivatives as Potent Intestinal Farnesoid X Receptor Antagonists to Ameliorate Nonalcoholic Steatohepatitis” (J Med Chem, 2022)
Activity calls are given as the source filed them. The rule behind the calls is not given here.

Columns and labels:
Bile acid receptor = molecular target: T1, Bile acid receptor (Homo sapiens, UniProt Q96RI1); assay: Antagonist activity at FXR (unknown origin) expressed in HEK293T cells cotransfected with pCMV-Script-hFXR/pGL4.11-hSHP-Luciferase incubated for 24 hrs in presence of GW4064 by Steady-glo luciferase assay; format: cell-based
T1 sequence (Q96RI1 whole entry): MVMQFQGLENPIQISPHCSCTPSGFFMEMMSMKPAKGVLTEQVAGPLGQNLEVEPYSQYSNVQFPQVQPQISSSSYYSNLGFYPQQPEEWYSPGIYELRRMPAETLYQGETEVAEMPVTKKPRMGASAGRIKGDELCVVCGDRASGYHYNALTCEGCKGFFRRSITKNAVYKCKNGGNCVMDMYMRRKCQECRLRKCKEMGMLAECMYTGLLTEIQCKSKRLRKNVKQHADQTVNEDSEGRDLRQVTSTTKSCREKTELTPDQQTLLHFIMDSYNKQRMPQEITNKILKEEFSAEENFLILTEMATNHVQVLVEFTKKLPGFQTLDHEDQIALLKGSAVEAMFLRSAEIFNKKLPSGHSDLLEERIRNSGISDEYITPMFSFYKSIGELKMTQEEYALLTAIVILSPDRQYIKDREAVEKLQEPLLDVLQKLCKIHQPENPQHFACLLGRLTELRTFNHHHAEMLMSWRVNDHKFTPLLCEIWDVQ

[1] = Cytotoxicity against HEK293T cells cotransfected with pCMV-Script-hFXR/pGL4.11-hSHP-Luciferase incubated for 24 hrs in presence of GW4064 by celltiter-blue cell viability assay; format: toxicity, cell-based, HEK-293T; conditions: human
[2] = molecular target: T2, Bile acid receptor (Mus musculus) (UniProt Q60641); assay: In vivo antagonist activity against FXR in mouse assessed as stimulation of organoids growth in presence of FXR agonist; format: functional
T2 sequence (whole entry): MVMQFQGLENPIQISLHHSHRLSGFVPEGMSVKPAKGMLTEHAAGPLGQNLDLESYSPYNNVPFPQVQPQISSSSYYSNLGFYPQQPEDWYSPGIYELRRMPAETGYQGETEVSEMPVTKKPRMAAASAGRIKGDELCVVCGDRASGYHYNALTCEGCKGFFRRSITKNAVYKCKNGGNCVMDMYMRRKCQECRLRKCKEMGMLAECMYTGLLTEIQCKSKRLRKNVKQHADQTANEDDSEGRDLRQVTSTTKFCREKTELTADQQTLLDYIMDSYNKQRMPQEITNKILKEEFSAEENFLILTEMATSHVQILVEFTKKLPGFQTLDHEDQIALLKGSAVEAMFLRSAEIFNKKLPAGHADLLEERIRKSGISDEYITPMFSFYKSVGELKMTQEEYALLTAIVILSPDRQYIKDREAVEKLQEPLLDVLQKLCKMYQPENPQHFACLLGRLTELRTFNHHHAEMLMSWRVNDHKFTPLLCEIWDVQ

[3] = molecular target: T2, Bile acid receptor (Mus musculus); assay: In vivo antagonist activity against FXR in microbeta depleted mouse assessed as reduction in taurocholic acid induced Shp mRNA expression in ileum at 10 mg/kg, po incubated for 2 to 48 hrs; format: functional, organism-based; conditions: time 2-48 hrs
Mus musculus [4] = assay: Anti-NASH activity in GAN-induced mouse assessed as reduction in fasting glucose level at 10 mg/kg measured upto 120 mins; format: functional, organism-based
Mus musculus [5] = assay: Anti-NASH activity in GAN-induced […] mouse assessed as increase in rectal temperature at 10 mg/kg; format: functional, organism-based
Mus musculus [6] = assay: Anti-NASH activity in GAN-induced […] mouse assessed as upregulation of […] expression in inguinal white adipose tissue at 10 mg/kg; format: functional, organism-based
Mus musculus [7] = organism: Mus musculus; assay: Anti-NASH activity in GAN diet-induced […] mouse assessed as reduction in liver weight; format: functional, organism-based
Mus musculus [8] = organism: Mus musculus; assay: Anti-NASH activity in GAN diet-induced […] mouse assessed as reduction in AST level; format: functional, organism-based
Liver [9] = assay: Anti-NASH activity in GAN diet-induced […] mouse liver assessed as reduction in macrosteatosis by H and E staining based analysis; format: functional
Liver [10] = assay: Anti-NASH activity in GAN diet-induced […] mouse liver assessed as reduction in hepatocyte fat by Oil Red O staining based assay; format: functional, cell-based
Liver [11] = assay: Anti-NASH activity in GAN diet-induced […] mouse liver assessed as reduction in hepatocyte collagen deposition by Oil Red O staining based assay; format: functional, cell-based
Liver [12] = assay: Anti-NASH activity in GAN diet-induced […] mouse liver assessed as reduction in hepatocyte ballooning by Sirius red staining based analysis; format: functional, cell-based
Mus musculus [13] = organism: Mus musculus; assay: Anti-NASH activity in GAN diet-induced […] mouse assessed as reduction in Cd36 mRNA expression level; format: functional, organism-based
Mus musculus [14] = organism: Mus musculus; assay: Anti-NASH activity in GAN diet-induced […] mouse assessed as reduction in Fabp2 mRNA expression level; format: functional, organism-based
Mus musculus [15] = organism: Mus musculus; assay: Anti-NASH activity in GAN diet-induced […] mouse assessed as upregulation of Ppara mRNA expression level; format: functional, organism-based
Mus musculus [16] = organism: Mus musculus; assay: Anti-NASH activity in GAN diet-induced […] mouse assessed as downregulation of P-ycard level; format: functional, organism-based
Mus musculus [17] = organism: Mus musculus; assay: Anti-NASH activity in GAN diet-induced […] mouse assessed as reduction in A-sma mRNA expression; format: functional, organism-based
Mus musculus [18] = organism: Mus musculus; assay: Anti-NASH activity in GAN diet-induced […] mouse assessed as reduction in Tgf-beta level; format: functional, organism-based
Mus musculus [19] = organism: Mus musculus; assay: Anti-NASH activity in GAN diet-induced […] mouse assessed as reduction in Col1a1 level; format: functional, organism-based
Mus musculus [20] = organism: Mus musculus; assay: Anti-NASH activity in GAN diet-induced […] mouse assessed as suppression of Fgf15 expression; format: functional, organism-based
Mus musculus [21] = organism: Mus musculus; assay: Anti-NASH activity in GAN diet-induced […] mouse assessed as upregulation of Cyp7a1 mRNA expression in liver; format: functional, organism-based
Mus musculus [22] = organism: Mus musculus; assay: Anti-NASH activity in GAN diet-induced […] mouse assessed as upregulation CYP7A1 protein by Western blot analysis; format: functional, organism-based
Mus musculus [23] = organism: Mus musculus; assay: Anti-NASH activity in GAN diet-induced […] mouse assessed as decrease in cholesterol in liver; format: functional, organism-based
Mus musculus [24] = organism: Mus musculus; assay: Anti-NASH activity in GAN diet-induced […] mouse assessed as reduction in N-tcp mRNA level; format: functional, organism-based
Mus musculus [25] = assay: Anti-NASH activity in GAN diet-induced […] mouse assessed as reduction of sphinogo-myelin level in serum administered orally for 12 weeks; format: functional, organism-based; conditions: route po
Mus musculus [26] = assay: Anti-NASH activity in GAN diet-induced […] mouse assessed as reduction of ceramide level in serum administered orally for 12 weeks; format: functional, organism-based; conditions: route po
Mus musculus [27] = assay: Anti-NASH activity in HFMCD diet-induced […] mouse assessed as reduction in AST serum level at 30 mg/kg, po for 4 weeks; format: functional, organism-based
Mus musculus [28] = assay: Anti-NASH activity in HFMCD diet-induced […] mouse assessed as reduction in hepatic TG concentration at 10 to 30 mg/kg, po for 4 weeks; format: functional, organism-based; conditions: dose 10-30 mg/kg

CCCC(=O)O[C@@H]1CC[C@]2(C)[C@H]3CC[C@@H]4[C@H]5[C@H](C(C)C)CC[C@]5(C(=O)NCC(=O)O)CC[C@@]4(C)[C@]3(C)CC[C@H]2C1(C)C
IC50 (Bile acid receptor): 2100 nM | IC50 at 24 h [1]: > 100000 nM | Activity [2]: Active | Activity [3]: Active | Activity (Mus musculus [4]): Active | Activity (Mus musculus [5]): Active | Activity (Mus musculus [6]): Active | Activity (Mus musculus [7]): Active | Activity (Mus musculus [8]): Active | Activity (Liver [9]): Active | Activity (Liver [10]): Active | Activity (Liver [11]): Active | Activity (Liver [12]): Active | Activity (Mus musculus [13]): Active | Activity (Mus musculus [14]): Active | Activity (Mus musculus [15]): Active | Activity (Mus musculus [16]): Active | Activity (Mus musculus [17]): Active | Activity (Mus musculus [18]): Active | Activity (Mus musculus [19]): Active | Activity (Mus musculus [20]): Active | Activity (Mus musculus [21]): Active | Activity (Mus musculus [22]): Active | Activity (Mus musculus [23]): Active | Activity (Mus musculus [24]): Active | Activity (Mus musculus [25]): Active | Activity (Mus musculus [26]): Active | Activity (Mus musculus [27]): Active | Activity (Mus musculus [28]): Active
